Inconclusive results are not listed. The source made the active and inactive calls.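 The calls were made as follows: active = compounds lowering the luciferase signal with a fitted half-maximal dose at most twice their top valid dose (cut at about 30 µM in these data); inconclusive = flat fits with moderate signal loss, or poor fits; inactive = the rest.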

This assay has as its system Clone20 osteoblast Shn3 3'UTR firefly luciferase, 24 h. Kind of assay: Schnurri-3 3'UTR-luciferase signal suppressors – cell-based, Clone20 osteoblasts, luminescence, dry powder, set 2, dose response (AID 743417).
Consider `CC1=CC2/C=C(\C)CCC(O)C(O)/C=C/C(=O)C23C(=O)NC(CC(C)C)C3C1C` (centres undefined), for which the AC50 is 5.29 µM.
`C#CCn1c(=NC(=O)c2ccc(S(=O)(=O)N3CCc4ccccc4C3)cc2)sc2cc(S(N)(=O)=O)ccc21`: the AC50 was 1.29 µM.
Under `CC(=O)c1c(C)[nH]c(C(=O)OCC(=O)Nc2ccc(Cl)cc2[N+](=O)[O-])c1C` stands 0.325 µM; under `COc1ccc(CNC(=O)c2cccc3c(-c4cccnc4)coc23)cc1OC`, 0.9 µM; under `CCOC(=O)c1c(NC(=O)c2nn(CC)cc2Br)sc(C)c1C`, 11 µM.
On to `O=C(/C=C/c1ccc(OCc2ccccc2)c(OCc2ccccc2)c1)c1cccnc1`, for which the AC50 was 5.19 µM.
For the compound `O=S(=O)(c1cccs1)N1CCN(CCOc2ccc(Cl)cc2)CC1`, the AC50 was 13.8 µM.
On to `CCN(CC)C(=O)C1CCN(S(=O)(=O)c2ccc3oc4ccccc4c3c2)CC1`, for which the AC50 was 3.96 µM.
Turning to `Cc1ccc(NC(=O)c2cc3ccccc3oc2=O)cc1S(=O)(=O)N(C)C`, the AC50 was 1.29 µM.
With `CN(c1cccc(NC(=O)CN(c2ccc(C34CC5CC(CC(C5)C3)C4)cc2)S(C)(=O)=O)c1)S(C)(=O)=O`, the AC50 is 7.58 µM.
Next, `Cc1ccc(NC(=O)C2=C(c3ccccc3)S(=O)(=O)CCS2(=O)=O)cc1`: 0.558 µM; `COc1ccc(-c2csc(NC(=O)C3CCN(c4ncnc5sc(C)c(C)c45)CC3)n2)cc1OC`: 1.42 µM.
Turning to `c1ccc(-c2cc(CSc3nc4ccccc4[nH]3)on2)cc1`, the AC50 is 3.76 µM.
Next, `C=CCNc1nc2c(c(=O)n(C)c(=O)n2C)n1CCCCCC`: 0.761 µM.
On to `COC(=O)c1ccc(N2CCN(S(=O)(=O)c3ccc(C)cc3)CC2)c([N+](=O)[O-])c1`, for which the AC50 was 3.88 µM.
For `CC1C(OC(=O)CCC(=O)NC(C)(C)CO)O[C@H]2OC3(C)CC[C@H]4[C@H](C)CCC1C24OO3` (some centres undefined), the AC50 was 0.495 µM.
`O=c1oc2ccccc2c(Cl)c1CN1CCCCC1`: the AC50 is 4.99 µM.
For `Cc1c(C(=O)N(Cc2cccc(Br)c2)C2CCS(=O)(=O)C2)oc2ccccc12` (centres undefined), the AC50 was 35.9 µM.
As to `Cc1ccc([N+](=O)[O-])cc1NC(=O)Nc1cccc(F)c1`, the AC50 is 2.21 µM.
With `CC(Oc1ccc(Cl)cc1Cl)c1nc(-c2ccc(NC(=O)c3ccncc3)cc2)no1` (centres undefined), the AC50 was 3.93 µM.
On to `COc1ccc(C[C@H]2COC(=O)[C@@H]2Cc2ccc(OC3OC(CO)C(O)C(O)C3O)c(OC)c2)cc1OC` (some centres undefined), for which the AC50 is 4.43 µM.
Next, `C/C1=C\[C@@H](C)C/C=C/[C@H]2[C@@H]3O[C@]3(C)[C@@H](C)[C@H]3[C@H](Cc4c[nH]c5ccccc45)NC(=O)[C@]32C(=O)/C=C/C(=O)[C@@H]1O`: 6.44 µM; `C=C1C(=O)[C@]23C[C@H]1CC[C@H]2[C@]1(C)[C@@H](OC(C)=O)CC[C@@](C)(C(=O)OC)[C@H]1C[C@@H]3OC(C)=O`: 5.99 µM.
For the compound `CCc1ccc(-n2c(O)c(C=NCCN(CC)CC)c(=O)[nH]c2=O)cc1`, the AC50 is > 70 µM (inactive).
Next, `CCCCn1c(-c2nonc2NC(=O)c2ccccc2Cl)nc2ccccc21`: 1.39 µM; `O=C(C(=Cc1ccccc1)CN1CCCCC1)c1ccccc1`: 3.18 µM; `COc1ccc(C(=O)NNC(=O)c2cccc(S(=O)(=O)N3CCOCC3)c2)cc1`: 23.2 µM.
Take `CSc1nnc(NC(=O)c2nc(S(=O)(=O)Cc3cccc(C)c3)ncc2Cl)s1`: the AC50 is 4.03 µM.
`COc1ccc(-n2nnnc2S(=O)(=O)CC(=O)N2CCCCC2)cc1`: the AC50 was 5.44 µM.
For the compound `Cc1ccccc1OCCOC(=O)c1cc(S(=O)(=O)N2CCCCC2)ccc1N1CCOCC1`, the AC50 was 3.79 µM.
As for `COC(=O)Oc1ccc(/C=C/C(=O)OC(C)C)cc1OC(=O)OC`, the AC50 is 3.29 µM.
As to `CCCCCCNC(=O)O[C@H]1Cn2c(=O)ccc(=O)n2[C@@H]2CN(S(=O)(=O)c3ccc(C)cc3)C[C@]12O`, the concentration at half-maximal activity (AC50) was 14.1 µM.
For the compound `O=C(NC1CCCCCCC1)c1cc(COc2ccc3ncccc3c2)on1`, the AC50 was 1.06 µM.
For the compound `CN(C)c1ncnc2c1C(c1ccccc1)C(C)(C)O2` (centres undefined), the AC50 is > 70 µM (inactive).

What is called AC50 is the midpoint of the concentration-response curve, whichever way the signal moves.
